According to PubChem BioAssay (NCI):
Values joined by “and” are separate entries in the source; they are usually repeats but may differ in a detail not shown here. Equal values may be shown once.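 Step 1: Grow cells in 96-well plates. Step 2: Expose to compound for 48 hours at 5 concentrations. Step 3: Interpolate endpoints linearly; if unreached, use highest concentration. Abbreviation: GI50, concentration required for 50% inhibition of growth. TGI: total growth inhibition.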

Assays:
Test in all cases: inhibition of tumour cell growth, NCI panel, 48 h
[1] = tested on: ACHN renal
[2] = tested on: CAKI-1 renal
[3] = tested on: HCC-2998 colon
[4] = tested on: HCT-15 colon
[5] = tested on: KM12 colon
[6] = tested on: MDA-N
[7] = tested on: MOLT-4 leukemia
[8] = tested on: SN12C renal
[9] = tested on: SR leukemia
[10] = tested on: T-47D breast

Structure (SMILES) | TGI [1] [µM] | TGI [2] [µM] | TGI [3] | TGI [4] [µM] | TGI [5] | TGI [6] [µM] | TGI [7] [µM] | TGI [8] [µM] | TGI [9] [µM] | TGI [10] [µM] | GI50 [8] [µM]
N#CCc1nc(-c2cc3ccccc3oc2=O)cs1 | > 100 | > 100 | > 100 µM | > 100 | > 100 µM | > 100 | 63.1 | > 100 | > 100 | > 100 | –
Cc1nc2ccc(S(=O)(=O)O)cc2c(=O)n1-c1ccc(C(=O)NN2C(=O)C(Cl)C2c2cccs2)cc1 (stereo unspecified) | > 100 | > 100 | > 100 µM | > 100 | > 100 µM | 80.2 | > 100 | > 100 | > 100 | > 100 | –
O=C1/C(=C/c2ccc(Br)s2)NC(=S)N1CN1CCCCC1 | > 100 | 59.2 | > 100 µM | > 100 | > 100 µM | > 100 | 66.8 | > 100 | 47.1 | > 100 | –
Nc1nccc(NCC2(CO)CC(CCc3ccccc3)C2)n1 (stereo unspecified) | 32.6 | 28.6 | 35.9 µM | 36.1 | 41.7 µM | 31.4 | 41.7 | 60.2 | 52.6 | 27.6 | –
CN(Cc1cccc2ccsc12)/N=C\c1ccc(Cl)cc1 | > 100 | > 100 | > 100 µM | > 100 | > 100 µM | > 100 | > 100 | > 100 | > 100 | > 100 | –
Cc1nc2ccc(N=Nc3c(C)noc3C)cc2[nH]1 | 86.2 | 86.8 | > 100 µM | > 100 | > 100 µM | > 100 | 58.5 | > 100 | 69.9 | 15.2 | –
COc1ccc(NC(=S)c2ccc([N+](=O)[O-])o2)cc1 | 5.42 | 14.1 | 3 µM | 3.56 | 3.55 µM | 6.11 | 13.9 | 4.85 | 8.63 | 17.3 | –
COC(=O)/C=C1\C(CO[Si](C)(C)C(C)(C)C)OC(n2ccc(=O)[nH]c2=O)C1O (stereo unspecified) | > 65.5 | > 100 | 26.2 µM | 35.2 | > 39.4 µM | > 66.4 | > 31.6 | > 54.4 | 26.4 | > 22.3 | –
CCOC(=O)c1cn(-c2ccc([N+](=O)[O-])cc2)c(=S)n2c1nc1ccccc12 | > 100 | > 100 | > 100 µM | > 100 | > 100 µM | > 100 | 75.7 | > 100 | > 100 | > 100 | –
CC(C)=CCC[C@@H](C)C1=C(N)C(O)=C(C)C(=O)C1=O | > 53.4 | > 75 | > 75 µM | > 75 | > 75 µM | > 75 | > 67.5 | > 75 | > 75 | > 75 | –
N#CCC(=O)N/N=C\C(O)C(O)C(O)C(O)CO (stereo unspecified) | > 100 | > 100 | > 100 µM | > 100 | > 100 µM | > 100 | > 100 | > 100 | > 100 | > 100 | –
Cc1cnc2[nH]c(-c3cccc4ccccc34)cc(=O)c2c1 | 64.6 | > 100 | 0.029 µM and 0.0576 µM | 0.935 | 0.25 µM and 1.45 µM | 0.000572 | > 100 | > 100 | > 100 | > 100 | 0.042
O=c1c2sc3ccccc3sc=2c(=O)c2c(Cl)c(Cl)c(Cl)c(Cl)c12 | > 100 | > 100 | > 100 µM | > 100 | > 100 µM | > 100 | > 100 | > 100 | > 100 | > 100 | –
Cc1cn([C@H]2C[C@@H](N3C(=O)c4ccccc4C3=O)[C@@H](CO[Si](C)(C)C(C)(C)C)O2)c(=O)[nH]c1=O | > 100 | > 100 | > 100 µM | > 100 | > 100 µM | > 100 | > 100 | > 100 | > 100 | > 100 | –
CCOc1ccc(NC(=O)C(=O)C(/C(=N/N)C(=O)OC)c2nc3ccc([N+](=O)[O-])cc3[nH]c2=O)cc1 (stereo unspecified) | > 100 | > 100 | > 100 µM | > 100 | > 100 µM | > 100 | > 100 | > 100 | > 100 | > 100 | –
CCN(CC)/[N+]([O-])=N/OS(=O)(=O)N(C)C | > 100 | > 100 | > 100 µM | > 100 | > 100 µM | > 100 | > 100 | > 100 | > 100 | > 100 | –
